{"source": "patent US20100056516A1", "about": "(priority 2006, published 2010)", "key": {"HIV integrase": {"target": "HIV integrase (Human immunodeficiency virus type 1 group M subtype B, UniProt P04585)", "assay": "integrase strand transfer assay (STA)", "assay_type": "biochemical", "settings": "integrase strand transfer; read-out: IC50 in the STA assay"}, "HXB2 virus": {"tested_on": "HXB2 virus", "assay": "microbe, parasite or virus in culture", "assay_type": "cell-based, HIV", "settings": "Human immunodeficiency virus 1, HXB2, HeLaP4-2, read-out: antiviral IC50 (SCIA-B)", "summary_of_the_method": "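Single-cycle infectivity assay in HeLa P4-2 cells measuring inhibition of acute HIV infection, using HXB2 virus.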"}}}
{"smiles": "NCc1cccc(-c2ccc3c(c2)CN(c2cc(=O)n(O)c4ncccc24)CC3)c1", "note": "[Example 252, 4-[7-(3-aminomethylphenyl)-3,4-dihydroisoquinolin-2(1H)-yl]-1-hydroxy-1,8-naphthyridin-2(1H)-one]", "values": [{"measurement": "IC50", "setting": "HIV integrase", "value": "< 50", "unit": "µM"}, {"measurement": "IC50", "setting": "HXB2 virus", "value": "< 100", "unit": "µM"}]}
{"smiles": "O=c1cc(NCc2ccncc2)c2cccnc2n1O", "note": "[Example 160, 1-hydroxy-4-[(4-pyridinylmethyl)amino]-1,8-naphthyridin-2 (1H-one)]", "values": [{"measurement": "IC50", "setting": "HIV integrase", "value": "< 50", "unit": "µM"}, {"measurement": "IC50", "setting": "HXB2 virus", "value": "< 100", "unit": "µM"}]}
{"smiles": "CCOC(=O)c1c(-c2ccc(CCc3ccncc3)cc2)c2cccnc2n(O)c1=O", "note": "[Example 262, Ethyl 4-[4-(2-pyridin-4-ylethyl)phenyl]-hydroxy-2-oxo-1,2-dihydro-1,8-naphthyridin-3-carboxylate]", "values": [{"measurement": "IC50", "setting": "HIV integrase", "value": "< 50", "unit": "µM"}, {"measurement": "IC50", "setting": "HXB2 virus", "value": "< 100", "unit": "µM"}]}
{"smiles": "CC(Nc1cc(=O)n(O)c2ncccc12)c1ccccc1", "note": "(stereo not drawn) [Example 157, 1-hydroxy-4-[(1-phenylethyl)amino]-1,8-naphthyridin-2(1H-one)]", "values": [{"measurement": "IC50", "setting": "HIV integrase", "value": "< 50", "unit": "µM"}, {"measurement": "IC50", "setting": "HXB2 virus", "value": "< 100", "unit": "µM"}]}
{"smiles": "O=c1c(-c2ccc(F)cc2)c(O)c2cccnc2n1O", "note": "[Example 34, 3-(4-Fluorophenyl)-1,4-dihydroxy-1,8-naphthyridin-2(1H)-one]", "values": [{"measurement": "IC50", "setting": "HIV integrase", "value": "< 50", "unit": "µM"}, {"measurement": "IC50", "setting": "HXB2 virus", "value": "< 100", "unit": "µM"}]}
{"smiles": "NC1(c2cccc(-c3ccc(-c4cc(=O)n(O)c5ncccc45)cc3)c2)CC1", "note": "[Example 238, 4-[3′-(1-aminocyclopropyl)biphenyl-4-yl]-1-hydroxy-1,8-naphthyridin-2(1H)-one]", "values": [{"measurement": "IC50", "setting": "HIV integrase", "value": "< 50", "unit": "µM"}, {"measurement": "IC50", "setting": "HXB2 virus", "value": "< 100", "unit": "µM"}]}
{"smiles": "CN(Cc1ccccc1)C(=O)c1c(O)c2cccnc2n(O)c1=O", "note": "[Example 7, N-Benzyl-1,4-dihydroxy-N-methyl-2-oxo-1,2-dihydro-1,8-naphthyridine-3-carboxamide]", "values": [{"measurement": "IC50", "setting": "HIV integrase", "value": "< 50", "unit": "µM"}, {"measurement": "IC50", "setting": "HXB2 virus", "value": "< 100", "unit": "µM"}]}
{"smiles": "CC(=O)c1cnc2c(c1)c(O)c(-c1ccccc1)c(=O)n2O", "note": "[Example 71, 6-acetyl-1,4-dihydroxy-3-phenyl-1,8-naphthyridin-2(1H)-one]", "values": [{"measurement": "IC50", "setting": "HIV integrase", "value": "< 50", "unit": "µM"}, {"measurement": "IC50", "setting": "HXB2 virus", "value": "< 100", "unit": "µM"}]}
{"smiles": "CCOC(=O)c1c(CCc2ccccc2)c2cccnc2n(O)c1=O", "note": "[Example 240, ethyl 1-hydroxy-2-oxo-4-(2-phenylethyl)-1,2-dihydro-1,8-naphthyridine-3-carboxylate]", "values": [{"measurement": "IC50", "setting": "HIV integrase", "value": "< 50", "unit": "µM"}, {"measurement": "IC50", "setting": "HXB2 virus", "value": "< 100", "unit": "µM"}]}
{"smiles": "NCc1cccc(-c2cccc(-c3ccnc4c3c(O)cc(=O)n4O)c2)c1", "note": "[Example 227, 5-[3′-(aminomethyl)biphenyl-3-yl]-1,4-dihydroxy-1,8-naphthyridin-2-(1H)-one]", "values": [{"measurement": "IC50", "setting": "HIV integrase", "value": "< 50", "unit": "µM"}, {"measurement": "IC50", "setting": "HXB2 virus", "value": "< 100", "unit": "µM"}]}
{"smiles": "CC(Br)Cc1cnc2c(c1)c(O)c(-c1ccccc1)c(=O)n2O", "note": "(stereo not drawn) [Example 74, 6-(2-Bromopropyl)-1,4-dihydroxy-3-phenyl-1,8-naphthyridin-2(1H)-one]", "values": [{"measurement": "IC50", "setting": "HIV integrase", "value": "< 50", "unit": "µM"}, {"measurement": "IC50", "setting": "HXB2 virus", "value": "< 100", "unit": "µM"}]}
{"smiles": "Cc1cc(C)n(-c2cccc(-c3ccnc4c3c(O)cc(=O)n4O)c2)n1", "note": "[Example 229, 5-[3-(3,5-dimethyl-1H-pyrazol-1-yl)phenyl]-1,4-dihydroxy-1,8-naphthyridin-2(1H)-one]", "values": [{"measurement": "IC50", "setting": "HIV integrase", "value": "< 50", "unit": "µM"}, {"measurement": "IC50", "setting": "HXB2 virus", "value": "< 100", "unit": "µM"}]}
{"smiles": "O=c1c(-c2ccccc2)c(O)c2cc(Cc3ccccc3)cnc2n1O", "note": "[Example 52, 6-Benzyl-1,4-dihydroxy-3-phenyl-1,8-naphthyridin-2(1H)-one]", "values": [{"measurement": "IC50", "setting": "HIV integrase", "value": "< 50", "unit": "µM"}, {"measurement": "IC50", "setting": "HXB2 virus", "value": "< 100", "unit": "µM"}]}
{"smiles": "O=c1cc(-c2ccn[nH]2)c2cccnc2n1O", "note": "[Example 198, 1-hydroxy-4-(1H-pyrazol-5-yl)-1,8-naphthyridin-2(1H)-one]", "values": [{"measurement": "IC50", "setting": "HIV integrase", "value": "< 50", "unit": "µM"}, {"measurement": "IC50", "setting": "HXB2 virus", "value": "< 100", "unit": "µM"}]}
{"smiles": "O=c1c(-c2ccccc2)c(O)c2cc(-c3cccs3)cnc2n1O", "note": "[Example 75, 6-(thien-2-yl)-1,4-dihydroxy-3-phenyl-1,8-napthyridin-2(1H)-one]", "values": [{"measurement": "IC50", "setting": "HIV integrase", "value": "< 50", "unit": "µM"}, {"measurement": "IC50", "setting": "HXB2 virus", "value": "< 100", "unit": "µM"}]}
{"smiles": "O=c1cc(C2=Cc3ccccc3CC2)c2cccnc2n1O", "note": "[Example 246, 4-(3,4-dihydronaphthalen-2-yl)-1-hydroxy-1,8-naphthyridin-2(1H)-one]", "values": [{"measurement": "IC50", "setting": "HIV integrase", "value": "< 50", "unit": "µM"}, {"measurement": "IC50", "setting": "HXB2 virus", "value": "< 100", "unit": "µM"}]}
{"smiles": "O=C(c1c(O)c2cccnc2n(O)c1=O)N1CCCCC1", "note": "[Example 8, 1,4-Dihydroxy-3-(piperidin-1-ylcarbonyl)-1,8-naphthyridin-2(1H)-one]", "values": [{"measurement": "IC50", "setting": "HIV integrase", "value": "< 50", "unit": "µM"}, {"measurement": "IC50", "setting": "HXB2 virus", "value": "< 100", "unit": "µM"}]}
{"smiles": "CCOC(=O)c1c(O)c2cc(C(=O)NC3CCCCC3)cnc2n(O)c1=O", "note": "[Example 86, ethyl-6-[(cyclohexylamino)carbonyl]-1,4-dihydroxy-2-oxo-1,2-dihydro-1,8-naphthyridine-3-carboxylate]", "values": [{"measurement": "IC50", "setting": "HIV integrase", "value": "< 50", "unit": "µM"}, {"measurement": "IC50", "setting": "HXB2 virus", "value": "< 100", "unit": "µM"}]}
{"smiles": "Nc1cccc(-c2cnc3c(c2)c(O)cc(=O)n3O)c1", "note": "[Example 68, 6-(3-Aminophenyl)-1,4-dihydroxy-1,8-naphthyridin-2(1H)-one]", "values": [{"measurement": "IC50", "setting": "HIV integrase", "value": "< 50", "unit": "µM"}, {"measurement": "IC50", "setting": "HXB2 virus", "value": "< 100", "unit": "µM"}]}
{"smiles": "O=C(NCc1ccccc1)c1c(O)c2cccnc2n(O)c1=O", "note": "[Example 19, N-benzyl-1,4-dihydroxy-2-oxo-1,2-dihydro-1,8-naphthyridine-3-carboxamide]", "values": [{"measurement": "IC50", "setting": "HIV integrase", "value": "< 50", "unit": "µM"}, {"measurement": "IC50", "setting": "HXB2 virus", "value": "< 100", "unit": "µM"}]}
{"smiles": "COc1ccccc1NC(=O)c1c(O)c2cccnc2n(O)c1=O", "note": "[Example 11, 1,4-Dihydroxy-N-(2-methoxyphenyl)-2-oxo-1,2-dihydro-1,8-naphthyridine-3-carboxamide]", "values": [{"measurement": "IC50", "setting": "HIV integrase", "value": "< 50", "unit": "µM"}, {"measurement": "IC50", "setting": "HXB2 virus", "value": "< 100", "unit": "µM"}]}
{"smiles": "CN(C)C(=O)c1c(O)c2cccnc2n(O)c1=O", "note": "[Example 5, 1,4-Dihydroxy-N,N-dimethyl-2-oxo-1,2-dihydro-1,8-naphthyridine-3-carboxamide]", "values": [{"measurement": "IC50", "setting": "HIV integrase", "value": "< 50", "unit": "µM"}, {"measurement": "IC50", "setting": "HXB2 virus", "value": "< 100", "unit": "µM"}]}
{"smiles": "CC(c1ccc(-c2cc(=O)n(O)c3ncccc23)cc1)N1CCOCC1", "note": "(stereo not drawn) [Example 174, 1-hydroxy-4-[4-(1-morpholin-4-ylethyl)phenyl]-1,8-naphthyridin-2(1H)-one]", "values": [{"measurement": "IC50", "setting": "HIV integrase", "value": "< 50", "unit": "µM"}, {"measurement": "IC50", "setting": "HXB2 virus", "value": "< 100", "unit": "µM"}]}
{"smiles": "NS(=O)(=O)c1cccc(-c2cc(=O)n(O)c3ncccc23)c1", "note": "[Example 192, 3-(1-hydroxy-2-oxo-1,2-dihydro-1,8-naphthyridin-4-yl)benzenesulfonamide]", "values": [{"measurement": "IC50", "setting": "HIV integrase", "value": "< 50", "unit": "µM"}, {"measurement": "IC50", "setting": "HXB2 virus", "value": "< 100", "unit": "µM"}]}
{"smiles": "O=C(NC1CC1)c1c(O)c2cccnc2n(O)c1=O", "note": "[Example 6, N-Cyclopropyl-1,4-dihydroxy-2-oxo-1,2-dihydro-1,8-naphthyridine-3-carboxamide]", "values": [{"measurement": "IC50", "setting": "HIV integrase", "value": "< 50", "unit": "µM"}, {"measurement": "IC50", "setting": "HXB2 virus", "value": "< 100", "unit": "µM"}]}
{"smiles": "CN(Cc1ccccc1)c1cc(=O)n(O)c2ncccc12", "note": "[Example 130, 4-[benzyl(methyl)amino]-1-hydroxy-1,8-naphthyridin-2(1H)-one]", "values": [{"measurement": "IC50", "setting": "HIV integrase", "value": "< 50", "unit": "µM"}, {"measurement": "IC50", "setting": "HXB2 virus", "value": "< 100", "unit": "µM"}]}
{"smiles": "CN(C)C(=O)c1cccc(-c2cc(=O)n(O)c3ncccc23)c1", "note": "[Example 181, 3-(1-hydroxy-2-oxo-1,2-dihydro-1,8-naphthyridin-4-yl)-N,N-dimethylbenzamide]", "values": [{"measurement": "IC50", "setting": "HIV integrase", "value": "< 50", "unit": "µM"}, {"measurement": "IC50", "setting": "HXB2 virus", "value": "< 100", "unit": "µM"}]}
{"smiles": "CCOC(=O)c1c(N)c2cccnc2n(O)c1=O", "note": "[Example 97, Ethyl 4-amino-1-hydroxy-2-oxo-1,2-dihydro-1,8-naphthyridine-3-carboxylate]", "values": [{"measurement": "IC50", "setting": "HIV integrase", "value": "< 50", "unit": "µM"}, {"measurement": "IC50", "setting": "HXB2 virus", "value": "< 100", "unit": "µM"}]}
{"smiles": "O=C(NCCc1ccccc1)c1ccc2c(c1)CN(c1cc(=O)n(O)c3ncccc13)CC2", "note": "[Example 260, 4-[7-(phenylethylaminocarbonyl)-3,4-dihydroisoquinolin-2(1H)-yl]-1-hydroxy-1,8-naphthyridin-2(1H)-one]", "values": [{"measurement": "IC50", "setting": "HIV integrase", "value": "< 50", "unit": "µM"}, {"measurement": "IC50", "setting": "HXB2 virus", "value": "< 100", "unit": "µM"}]}
{"smiles": "O=C(Cc1ccccc1)Nc1cc(=O)n(O)c2ncccc12", "note": "[Example 101, N-(1-Hydroxy-2-oxo-1,2-dihydro-1,8-naphthyridin-4-yl)-2-phenylacetamide]", "values": [{"measurement": "IC50", "setting": "HIV integrase", "value": "< 50", "unit": "µM"}, {"measurement": "IC50", "setting": "HXB2 virus", "value": "< 100", "unit": "µM"}]}
